Laboratory results reported in patent publication US20080255111A1, “Tissue Factor Production Inhibitor” (SANKYO COMPANY LIMITED, priority 2004, published 2008).

tested on: tissue factor mRNA in LPS-stimulated mouse peritoneal macrophages; assay: Assay of mouse peritoneal macrophage tissue factor mRNA; assay type: cell-based; conditions: test compound 1 μM, 18 h, then LPS 100 ng/ml for 6 h, relative to cyclophilin mRNA, DMSO treatment = 100, read-out: Expressed Amount of Tissue Factor mRNA
Method: 3 ml of thioglycolate (Sigma Chemical) were administered into the abdominal cavity of male C57BL/6J mice (Charles River) followed 4 days later by intraperitoneal administration of 10 ml of phosphate-buffered saline (hereinafter PBS) containing heparin (Hishiyama Pharmaceutical) at a concentration of 5 U/ml and recovery of intraperitoneal macrophages using a syringe. After centrifuging the recovered macrophages at 1000 rpm and 4° C. for 5 minutes, the supernatant was discarded followed by suspending in RPMI 1640 medium (Gibco Laboratories) containing normal fetal bovine serum (hereinafter FBS) at a concentration of 10%. The macrophages were adjusted to a concentration of 4×10^6 cells/ml, disseminated in 1 ml aliquots in a 12-well plate, and cultured for 3 hours at 37° C. using a CO2 incubator. Subsequently, the cells were washed with PBS, and the medium was replaced with RPMI medium containing lipoprotein-deficient serum (hereinafter LPDS) (Sigma Chemical) at a concentration of 5%. Test compounds dissolved in dimethylsulfoxide (DMSO) at a concentration of 1 μM were added to make a final DMSO concentration of 0.1%, and after warming for 18 hours at 37° C., lipopolysaccharide (hereinafter LPS) (Sigma Chemical) was added to make a concentration of 100 ng/ml. The cells were recovered 6 hours later, RNA was extracted using the Rneasy Mini Kit (Qiagen), and after carrying out a reverse transcription reaction using the First-Strand cDNA Synthesis Kit (Amersham Biosciences), the expressed amounts of tissue factor mRNA and cyclophylin mRNA were measured by quantitative RT-PCR (TaqMan, Applied Biosystems 7700 Sequence Detector).
Quantitative RT-PCR for tissue factor was carried out using the aforementioned TF-1 and TF-2 as primers and TF-P as probes, while quantitative PCR for cyclophilin was carried out using the aforementioned Cyl-1 and Cyl-2 as primers and Cyl-P as probes. Both were carried out by warming for 2 minutes at 50° C. and then for 10 minutes at 95° C., followed by 40 warming cycles consisting of warming for 15 seconds at 95° C. and then for 1 minute at 60° C. The expressed amount of tissue factor mRNA was calculated as a relative value of the expressed amount of cyclophilin mRNA. The expressed amounts of tissue factor mRNA resulting from the test compounds at a concentration of 1 μM or 10 μM based on a value of 100 for the expressed amount of tissue factor mRNA in a case of treatment with DMSO at a concentration of […] are shown in Table 7.

Row | SMILES | mrna remaining at 1 µM
1 | COc1cc2nc(Cc3ccccc3)n(-c3ccc(C(O)(C(F)(F)F)C(F)(F)F)cc3)c(=O)c2cc1OC [Compound D, 2-Benzyl-6,7-dimethoxy-3-[4-[2,2,2-trifluoro-1-hydroxy-1-(trifluoromethyl)ethyl]phenyl]-4(3H)-quinazolinone] | 39%
2 | O=C(O)Cc1cccc(OCCCN(Cc2cccc(C(F)(F)F)c2Cl)CC(c2ccccc2)c2ccccc2)c1 [Compound C, 2-(3-{3-[[2-Chloro-3-(trifluoromethyl)benzyl](2,2-diphenylethyl)amino]propoxy}-phenyl)acetic acid, reference compound] | 68.8%
3 | CC(C)(C)OC(=O)n1c(COc2ccc(-c3ccc(CC(=O)O)c(Cl)c3)cc2)cc2ccc(F)cc21 [Reference Example 10, (4′-([1-(tert-Butoxycarbonyl)-6-fluoro-1H-indol-2-yl]methoxy)-3-chloro-1,1′-biphenyl-4-yl)acetic acid] | 68.9%
4 | CC(C)(C)OC(=O)c1c(COc2ccc(-c3ccc(CC(=O)O)s3)cc2)ccc(C(F)(F)F)c1O [Reference Example 21, [5-(4-{[2-(tert-Butoxycarbonyl)-3-hydroxy-4-(trifluoromethyl)benzyl]oxy}phenyl)-2-thienyl]acetic acid] | 68.9%
5 | O=c1c2cc(-c3ccccn3)ccc2nc(Cc2ccccc2)n1-c1ccc(C(O)(C(F)(F)F)C(F)(F)F)cc1 [Compound F, 2-Benzyl-6-(2-pyridyl)-3-[4-[2,2,2-trifluoro-1-hydroxy-1-(trifluoromethyl)ethyl]phenyl]-4(3H)-quinazolinone] | 76.9%
6 | CN(C(=O)C1CC1)c1ccc(OCc2ccc(C(F)(F)F)c(O)c2C(=O)OC(C)(C)C)cc1 [Reference Example 5, tert-Butyl 6-({4-[(cyclopropylcarbonyl)(methyl)amino]phenoxy}methyl)-2-hydroxy-3-(trifluoromethyl)benzoate] | 64.3%
7 | CC(C)(C)OC(=O)c1c(COc2ccc(-c3ccc(CC(=O)O)cc3[N+](=O)[O-])cc2)ccc(C(F)(F)F)c1O [Reference Example 22, (4′-{[2-(tert-Butoxycarbonyl)-3-hydroxy-4-(trifluoromethyl)benzyl]oxy}-2-nitro-1,1′-biphenyl-4-yl)acetic acid] | 54%
8 | COc1cc(CC(=O)O)ccc1-c1ccc(OCc2ccc(C(F)(F)F)c(O)c2C(=O)OC(C)(C)C)cc1 [Reference Example 25, (4′-{[2-(tert-Butoxycarbonyl)-3-hydroxy-4-(trifluoromethyl)benzyl]oxy}-2-methoxy-1,1′-biphenyl-4-yl)acetic acid] | 64%
9 | CCc1cc(CC(=O)O)ccc1-c1ccc(OCc2ccc(C(F)(F)F)c(O)c2C(=O)OC(C)(C)C)cc1 [Reference Example 15, (4′-{[2-(tert-Butoxycarbonyl)-3-hydroxy-4-(trifluoromethyl)benzyl]oxy}-2-ethyl-1,1′-biphenyl-4-yl)acetic acid] | 55.5%
10 | O=S(=O)(c1ccccc1)N(CC(F)(F)F)c1ccc(C(O)(C(F)(F)F)C(F)(F)F)cc1 [Compound A, N-(2,2,2-Trifluoroethyl)-N-{4-[2,2,2-trifluoro-1-hydroxy-1-(trifluoromethyl)ethyl]phenyl}benzenesulfonamide, reference compound] | 20%
11 | Cc1c(CC(=O)O)cccc1-c1ccc(OCc2ccc(C(F)(F)F)c(O)c2C(=O)OC(C)(C)C)cc1 [Reference Example 16, (4′-{[2-(tert-Butoxycarbonyl)-3-hydroxy-4-(trifluoromethyl)benzyl]oxy}-2-methyl-1,1′-biphenyl-3-yl)acetic acid] | 65.4%
12 | CC(C)(C)OC(=O)n1c(COc2ccc(-c3ccc(CC(=O)O)cc3Cl)cc2)cc2ccc(F)cc21 [Reference Example 12, (4′-{[1-(tert-Butoxycarbonyl)-6-fluoro-1H-indol-2-yl]methoxy}-2-chloro-1,1′-biphenyl-4-yl)acetic acid] | 54.3%
13 | CC(C)(C)OC(=O)c1c(COc2ccc(-c3ccc(CC(=O)O)c(F)c3)cc2)ccc(C(F)(F)F)c1O [Reference Example 23, (4′-{[2-(tert-Butoxycarbonyl)-3-hydroxy-4-(trifluoromethyl)benzyl]oxy}-3-fluoro-1,1′-biphenyl-4-yl)acetic acid] | 51.6%

same assay, conditions: test compound 10 μM, 18 h, then LPS 100 ng/ml for 6 h, relative to cyclophilin mRNA, DMSO treatment = 100, read-out: Expressed Amount of Tissue Factor mRNA

Row | SMILES | mrna remaining at 10 µM
14 | CC(C)(C)OC(=O)c1c(COc2ccc(-c3ccc(C(CO)C(=O)O)cc3)cc2)ccc(C(F)(F)F)c1O (stereo not shown) [Reference Example 32, 2-(4′-{[2-(tert-Butoxycarbonyl)-3-hydroxy-4-(trifluoromethyl)benzyl]oxy}-1,1′-biphenyl-4-yl)-3-hydroxypropanoic acid] | 48.5%
15 | CC(C)c1cc(CC(=O)O)ccc1-c1ccc(OCc2ccc(C(F)(F)F)c(O)c2C(=O)OC(C)(C)C)cc1 [Reference Example 33, (4′-{[2-(tert-Butoxycarbonyl)-3-hydroxy-4-(trifluoromethyl)benzyl]oxy}-2-isopropyl-1,1′-biphenyl-4-yl)acetic acid] | 37.2%
16 | CC(C)(C)OC(=O)c1c(COc2ccc(-c3ccc(CC(=O)O)cc3)cc2)ccc(Cl)c1O [Reference Example 20, (4′-{[2-(tert-Butoxycarbonyl)-4-chloro-3-hydroxybenzyl]oxy}-1,1′-biphenyl-4-yl)acetic acid] | 58.1%
17 | CC(C)(C)OC(=O)c1c(COc2ccc(-c3ccc(CC(=O)O)cc3)cc2)ccc(F)c1O [Reference Example 19, (4′-{[2-(tert-Butoxycarbonyl)-4-fluoro-3-hydroxybenzyl]oxy}-1,1′-biphenyl-4-yl)acetic acid] | 51.6%

tested on: tissue factor mRNA in kidneys of LPS-dosed mice; assay: Assay of tissue factor mRNA using LPS-dosed mouse (kidney); assay type: in vivo; conditions: male C57BL/6J mice, 10 mg/kg oral once a day for 7 days; LPS 4 mg/kg i.p., kidneys 6 hours later; PG/Tween only = 100
Method: Test compounds were dissolved in a solution comprising a 4:1 mixture of propylene glycol (Wako Pure Chemical Industries) and Tween 80 (Kao) (hereinafter PG/Tween) followed by oral administration by gavage for 7 days at 10 mg/kg once a day in the evening to male C57BL/6J mice (Charles River). LPS was administered intraperitoneally at 4 mg/kg at 9:00 AM on the day following the 7th day of administration of PG/Tween, after which the animals were laparotomized under ether anesthesia 6 hours later to excise the kidneys. RNA was extracted from the kidneys using Trizol reagent (Invitrogen). After carrying out a reverse transcription reaction on the resulting RNA using the First-Strand cDNA Synthesis Kit, the expressed amounts of tissue factor mRNA and cyclophilin mRNA were measured in the same manner as the aforementioned Test Example 1. The expressed amounts of tissue factor mRNA for the test compounds when administered at a concentration of 10 mg/kg based on a value of 100 for the expressed amount of tissue factor mRNA in a case of administration of PG/Tween only are shown in Table 8.

Row | SMILES | Expressed Amount of Tissue Factor mRNA
18 | COc1cc2nc(Cc3ccccc3)n(-c3ccc(C(O)(C(F)(F)F)C(F)(F)F)cc3)c(=O)c2cc1OC [Compound D, 2-Benzyl-6,7-dimethoxy-3-[4-[2,2,2-trifluoro-1-hydroxy-1-(trifluoromethyl)ethyl]phenyl]-4(3H)-quinazolinone] | 63.5
19 | O=C(O)Cc1cccc(OCCCN(Cc2cccc(C(F)(F)F)c2Cl)CC(c2ccccc2)c2ccccc2)c1 [Compound C, 2-(3-{3-[[2-Chloro-3-(trifluoromethyl)benzyl](2,2-diphenylethyl)amino]propoxy}-phenyl)acetic acid, reference compound] | 54.1
